# Counter-ions that a name gives are not always drawn.
# Tested on: SARS-CoV-2 beta variant
# Experiment: […]; lung PCR and histopathology
# Format: in vivo, BALB C mice
Molecule,antiviral effect upon sole administration (Nafamostat mesylate alone),"antiviral effect of single drug (mouse, in vivo)","reduction of infection (PCR) by single drug (mouse, in vivo)",antiviral effect upon sole administration (Apilimod dimesylate alone)
N=C(N)c1ccc2cc(OC(=O)c3ccc(N=C(N)N)cc3)ccc2c1 [Nafamostat mesylate],partial antiviral inhibitory effect,no effect,5-10 fold,
N-[(E)-(3-methylphenyl)methylidencamino]-6-morpholin-4-yl-2-(2-pyridin-2-ylethoxy)pyrimidin-4-amine [Apilimod dimesylate],,no antiviral effect,,lack of antiviral effect
